Data as given in patent US5500424A, “Pyrimidine and pyridine derivatives, their production and use” (Nihon Nohyaku Co., Ltd., priority 1993, dated 1996).

What was measured:
[1] = target: T1, acyl-CoA:cholesterol acyltransferase (ACAT) (Oryctolagus cuniculus, UniProt G1SFD9); test: Inhibitory activity on acyl-CoA:cholesterol acyltransferase (ACAT); format: biochemical, white rabbit; details: rabbit intestinal mucosa microsomes, read-out: Inhibition rate
T1 construct: The intestinal mucosa of a white rabbit was homogenized and microsomal fraction was obtained; from tissue; host or cells: white rabbit intestinal mucosa, microsomal fraction
T1 sequence (G1SFD9 1-524): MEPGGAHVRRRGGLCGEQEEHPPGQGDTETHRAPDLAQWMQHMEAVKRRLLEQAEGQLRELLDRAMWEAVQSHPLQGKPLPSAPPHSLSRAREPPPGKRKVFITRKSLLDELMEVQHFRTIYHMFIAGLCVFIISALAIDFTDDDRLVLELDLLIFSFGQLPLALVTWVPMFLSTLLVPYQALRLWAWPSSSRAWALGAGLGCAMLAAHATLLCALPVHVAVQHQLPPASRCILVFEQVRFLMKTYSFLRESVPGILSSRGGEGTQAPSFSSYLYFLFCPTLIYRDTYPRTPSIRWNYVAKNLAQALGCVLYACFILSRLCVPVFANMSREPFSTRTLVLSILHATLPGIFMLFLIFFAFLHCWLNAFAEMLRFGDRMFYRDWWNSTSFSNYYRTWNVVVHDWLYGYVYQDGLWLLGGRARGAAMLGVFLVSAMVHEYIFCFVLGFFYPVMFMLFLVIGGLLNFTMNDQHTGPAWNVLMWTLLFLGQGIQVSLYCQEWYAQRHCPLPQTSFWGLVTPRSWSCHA
Experimental: Inhibitory activity on acyl-CoA:cholesterol acyltransferase (ACAT)
The enzyme used in the test was prepared according to the method of Heider et al. [J. Lipid, Res. 24, 1127 (1983)]. The intestinal mucosa of a white rabbit was homogenized and microsomal fraction was obtained by stepwise centrifugation. The microsomal fraction was suspended in 0.154M phosphate buffer (pH 7.4) and stored at -80° C. until use.
ACAT activity was determined by a modification of the method of Helgerud et al. [J. Lipid Res. 22, 271 (1981)] by measuring radioactivity incorporated into cholesterol esters from [1-^14 C]oleyl-CoA, as an indication. As to the ACAT-inhibitory activity of each compound to be tested, the inhibition rate was calculated by the following equation. [formula]

[2] = tested on: hamsters fed on a high-cholesterol diet; test: Serum cholesterol lowering activity in hamsters fed on a high-cholesterol diet; format: in vivo, Male Syrian hamsters; details: Mesocricetus auratus, 30 mg/kg per day for 4 days, 24 hours after last administration, read-out: Reduction rate of total serum cholesterol concentration
Experimental: Serum cholesterol lowering activity in hamsters fed on a high-cholesterol diet
Male Syrian hamsters of 10-week-old were divided into three groups. The first group (normal group) was fed an ordinary diet for 4 days. The second group (control group) was fed a high cholesterol diet (containing 0.5% cholesterol and 8.0% coconut oil) for 4 days. The third group (treated group) was fed a high cholesterol diet and was treated with a compound for 4 days. Simultaneously with the beginning of the above feeding, the compound was suspended in a 0.5% carboxymethyl cellulose solution and administered to the treated group, in a dose of 30 mg (in terms of the compound) per kg of body weight per day for 4 days. A 0.5% carboxymethyl cellulose solution was also administered to the normal group and the control group in the same manner as above.
After 24 hours of the last administration, blood was collected and the cholesterol concentration in serum was measured by an enzymatic method. The reduction rate of the total serum cholesterol concentration was calculated from values obtained for the three groups by the following equation. [formula] wherein A: the serum cholesterol concentration of the control group.
B: the serum cholesterol concentration of the treated group.
C: the serum cholesterol concentration of the normal group.

Structure (SMILES) | inhibition at 0.01 µM [1] | inhibition at 1 µM [1] | inhibition in vivo at 30 mg/kg [2]
Cc1cccc(C(C)C)c1NC(=O)Nc1c(C)nc(-c2ccccc2)nc1-c1ccccc1Cl [Compound 1, N-[4-(2-Chlorophenyl)-6-methyl-2-phenylpyrimidin-5-yl]-N'-(2-isopropyl-6-methylphenyl)urea] | 16.7% | 98% | 
Cc1nc(-c2ccccc2)nc(-c2ccccc2Cl)c1NC(=O)Nc1c(C(C)C)cccc1C(C)C [Compound 2, N-[4-(2-Chlorophenyl)-6-methyl-2-phenylpyrimidin-5-yl]-N'-(2,6-diisopropylphenyl)urea] | 58.5% | 99.2% | 42.7%
Cc1cc(C)c(NC(=O)Nc2c(C)nc(-c3ccccc3)nc2-c2ccccc2Cl)c(C)c1 [Compound 3, N-[4-(2-Chlorophenyl)-6-methyl-2-phenylpyrimidin-5-yl]-N'-(2,4,6-trimethylphenyl)urea] |  | 88.3% | 
Cc1nc(-c2ccccc2)nc(-c2ccccc2Cl)c1NC(=O)Nc1ccc(N(C)C)cc1 [Compound 6, N-[4-(2-Chlorophenyl)-6-methyl-2-phenylpyrimidin-5-yl]-N'-(4-dimethylaminophenyl)urea] |  | 23% | 
Cc1cccc(C)c1NC(=O)Nc1cnc(-c2ccccc2)nc1-c1ccccc1Cl [Compound 13, N-[4-(2-Chlorophenyl)-2-phenylpyrimidin-5-yl]-N'-(2,6-dimethylphenyl)urea] | 40.2% | 97.5% | 
CCc1cccc(CC)c1NC(=O)Nc1cnc(-c2ccccc2)nc1-c1ccccc1Cl [Compound 14, N-[4-(2-Chlorophenyl)-2-phenylpyrimidin-5-yl]-N'-(2,6-diethylphenyl)urea] | 58.8% | 99% | 59.4%
Cc1cc(C)c(NC(=O)Nc2cnc(-c3ccccc3)nc2-c2ccccc2Cl)c(C)c1 [Compound 18, N-[4-(2-Chlorophenyl)-2-phenylpyrimidin-5-yl]N'-(2,4,6-trimethylphenyl) urea] |  | 79.7% | 
Cc1cccc(N(C)C)c1NC(=O)Nc1cnc(-c2ccccc2)nc1-c1ccccc1Cl [Compound 19, N-[4-(2-Chlorophenyl)-2-phenylpyrimidin-5-yl]-N'-(2-dimethylamino-6-methylphenyl)urea] | 35.9% |  | 
O=C(Nc1cnc(-c2ccccc2)nc1-c1ccccc1Cl)Nc1c(F)cc(F)cc1F [Compound 23, N-[4-(2-Chlorophenyl)-2-phenylpyrimidin-5-yl]-N'-(2,4,6-trifluorophenyl)urea] |  | 87% | 
CC(C)c1cccc(C(C)C)c1NC(=O)Nc1cnc(-c2ccccc2)nc1-c1cccc(Cl)c1 [Compound 26, N-[4-(3-Chlorophenyl)-2-phenylpyrimidin-5-yl]-N'-(2,6-diisopropylphenyl)urea] | 58.9% |  | 
CC(C)c1cccc(C(C)C)c1NC(=O)Nc1cnc(-c2ccccc2)nc1-c1ccc(Cl)cc1 [Compound 28, N-[4-(4-Chlorophenyl)-2-phenylpyrimidin-5-yl]-N'-(2,6-diisopropylphenyl)urea] | 40.7% |  | 
CC(C)c1cccc(C(C)C)c1NC(=O)Nc1cnc(-c2ccccc2)nc1-c1ccc(Cl)cc1Cl [Compound 30, N-[4-(2,4-Dichlorophenyl)-2-phenylpyrimidin-5-yl]-N'-[2,6-diisopropylphenyl)urea] | 37.1% |  | 
CC(C)c1cccc(C(C)C)c1NC(=O)Nc1cnc(-c2ccccc2)nc1-c1ccccc1F [Compound 34, N-(2,6-Diisopropylphenyl)-N'-[4-(2-fluorophenyl)-2-phenylpyrimidin-5-yl]urea] | 65.8% |  | 74%
COc1ccccc1-c1nc(-c2ccccc2)ncc1NC(=O)Nc1c(C(C)C)cccc1C(C)C [Compound 40, N-(2,6-Diisopropylphenyl)-N'-[4-(2-methoxyphenyl)-2-phenylpyrimidin-5-yl]urea] | 47.5% |  | 
CCc1cccc(CC)c1NC(=O)Nc1cnc(-c2ccccc2)nc1-c1ccccc1SC [Compound 41, N-(2,6-Diethylphenyl)-N'-[4-(2-methylthiophenyl)-2-phenylpyrimidin-5-yl]urea] | 56.3% |  | 
CC(C)c1cccc(C(C)C)c1NC(=O)Nc1cnc(-c2cc(Cl)cc(Cl)c2)nc1-c1ccccc1Cl [Compound 44, N-[4-(2-Chlorophenyl)-2-(3,5-dichlorophenyl)pyrimidin-5-yl]-N'-(2,6-diisopropylphenyl)urea] | 46.8% |  | 
Cc1ncc(NC(=O)Nc2c(C(C)C)cccc2C(C)C)c(-c2ccccc2Cl)n1 [Compound 46, N-[4-(2-Chlorophenyl)-2-methylpyrimidin-5-yl]-N'-(2,6-diisopropylphenyl)urea] | 32% |  | 
CC(C)c1cccc(C(C)C)c1NC(=O)Nc1cnc(C(C)(C)C)nc1-c1ccccc1Cl [Compound 50, N-[2-t-Butyl-4-(2-chlorophenyl)pyrimidin-5-yl]-N'-(2,6-diisopropylphenyl)urea] | 48.4% |  | 
CCOc1ncc(NC(=O)Nc2c(C(C)C)cccc2C(C)C)c(-c2ccccc2Cl)n1 [Compound 52, N-[4-(2-Chlorophenyl)-2-ethoxypyrimidin-5-yl]-N'-(2,6-diisopropylphenyl)urea] | 64.7% |  | 
CCc1cccc(CC)c1NC(=O)Nc1cnc(N2CCCC2)nc1-c1ccccc1Cl [Compound 53, N-[4-(2-Chlorophenyl)-2-(N-pyrrolidino)pyrimidin-5-yl]-N'-(2,6-diethylphenyl)urea] | 70% |  | 
CC(C)c1cccc(C(C)C)c1NC(=O)Nc1cnc(N2CCCCC2)nc1-c1ccccc1Cl [Compound 56, N-[4-(2-Chlorophenyl)-2-(N-piperidino)pyrimidin-5-yl]-N'-(2,6-diisopropylphenyl)urea] | 69.5% |  | 
CCc1cccc(CC)c1NC(=O)Nc1cnc(N2CCOCC2)nc1-c1ccccc1Cl [Compound 57, N-[4-(2-Chlorophenyl)-2-(N-morpholino)pyrimidin-5-yl]-N'-(2,6-diethylphenyl)urea] | 63.2% |  | 59.5%
CC(C)c1cccc(C(C)C)c1NC(=O)Nc1cnc(N2CCN(C)CC2)nc1-c1ccccc1Cl [Compound 60, N-[4-(2-Chlorophenyl)-2-(4-methyl-1-piperazino)pyrimidin-5-yl]-N'-(2,6-diisopropylphenyl)urea] | 40.1% |  | 
CC(C)c1cccc(C(C)C)c1NC(=O)Nc1ccc(-c2ccccc2)nc1-c1ccccc1Cl [Compound 63, N-[2-(2-Chlorophenyl)-6-phenylpyridin-3-yl]-N'-(2,6-diisopropylphenyl)urea] | 53.1% |  | 
Cc1ccc(NC(=O)Nc2c(C(C)C)cccc2C(C)C)c(-c2ccccc2Cl)n1 [Compound 64, N-[2-(2-Chlorophenyl)-6-methylpyridin-3-yl]-N'-(2,6-diisopropylphenyl)urea] | 43.6% |  | 
CCCCCCCc1ccc(NC(=O)Nc2c(C(C)C)cccc2C(C)C)c(-c2ccccc2Cl)n1 [Compound 65, N-[2-(2-Chlorophenyl)-6-(n-heptyl)pyridin-3-yl]-N'-(2,6-diisopropylphenyl)urea] | 29.8% |  | 
CC(C)c1cccc(C(C)C)c1NC(=O)Nc1ccc(C2CCCCC2)nc1-c1ccccc1Cl [Compound 67, N-[2-(2-Chlorophenyl)-6-cyclohexylpyridin-3-yl]-N'-(2,6-diisopropylphenyl)urea] | 58% |  | 
